Test results: ChEMBL document CHEMBL1201862, “PubChem BioAssay data set” (2004)
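These data come from cells grown in 96-well plates and exposed to compound for 48 hours at five concentrations. At the GI50, growth is halved.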 Calls of active or inactive are those of the source. Rule as the data show it: active = GI50 up to about 1.1 µM and inactive = higher.

Assays:
Test in all cases: NCI tumour cell line growth inhibition, 48 h
786-0 = system: 786-0
CAKI-1 = system: CAKI-1
HL-60 = system: HL-60
HT-29 = system: HT-29
NCI-H226 = system: NCI-H226
NCI-H460 = system: NCI-H460
OVCAR-4 = system: OVCAR-4
PC-3 = system: PC-3
SF-539 = system: SF-539
SK-MEL-5 = system: SK-MEL-5
SNB-19 = system: SNB-19
SNB-75 = system: SNB-75
SR = system: SR
TK-10 = system: TK-10
UACC-62 = system: UACC-62
A498 = system: A498
CCRF-CEM = system: CCRF-CEM
HOP-62 = system: HOP-62
LOX IMVI = system: LOX IMVI

Measured: GI50

Nc1ccc2c(O)cc(O)nc2n1
inactive: 786-0 > 100 µM | CAKI-1 > 100 µM | HL-60 > 100 µM | HT-29 > 100 µM | NCI-H226 > 100 µM | NCI-H460 > 100 µM | OVCAR-4 > 100 µM | PC-3 > 100 µM | SF-539 > 100 µM | SK-MEL-5 > 100 µM | SNB-19 > 100 µM | SNB-75 > 100 µM | SR > 100 µM | TK-10 > 100 µM | UACC-62 > 100 µM

CC(C(=O)ON1C(=O)CCC1=O)c1ccc(C(=O)c2ccccc2)s1 (configuration not stated)
inactive: 786-0 > 100 µM | A498 > 100 µM | CAKI-1 > 100 µM | CCRF-CEM > 100 µM | HOP-62 > 100 µM | HT-29 > 100 µM | LOX IMVI > 100 µM | NCI-H226 > 100 µM | NCI-H460 > 100 µM | OVCAR-4 > 100 µM | PC-3 > 100 µM | SK-MEL-5 > 100 µM | SNB-19 > 100 µM | SNB-75 > 100 µM | SR > 100 µM | TK-10 > 100 µM | UACC-62 > 100 µM

CC(C)C1(Cl)CCC2C3(C)CCCC(C)(C(=O)O)C3CC(Cl)C2(Cl)C1Cl (configuration not stated)
inactive: 786-0 32.6 µM | A498 41.7 µM | CAKI-1 43 µM | CCRF-CEM 22.8 µM | HL-60 22.3 µM | HT-29 14.7 µM | LOX IMVI 33.8 µM | NCI-H226 20.9 µM | NCI-H460 23.9 µM | OVCAR-4 24.8 µM | PC-3 34.6 µM | SF-539 21.7 µM | SK-MEL-5 25.8 µM | SNB-19 34.8 µM | SR 25.6 µM | TK-10 43.3 µM | UACC-62 24.7 µM

C#CCNC(CCCNC(=N)N)C(=O)O (configuration not stated)
inactive: 786-0 > 100 µM | A498 > 100 µM | CAKI-1 > 100 µM | CCRF-CEM > 100 µM | HL-60 > 100 µM | HOP-62 > 100 µM | HT-29 > 100 µM | LOX IMVI > 100 µM | NCI-H226 > 100 µM | NCI-H460 > 100 µM | OVCAR-4 > 100 µM | PC-3 > 100 µM | SK-MEL-5 > 100 µM | SNB-19 > 100 µM | SNB-75 > 100 µM | SR > 100 µM | TK-10 > 100 µM | UACC-62 > 100 µM
